Laboratory results reported in patent US5266319A, “Tannin derivatives and their use for treatment of hypertension” (National Science Council, priority 1992, dated 1993).

Assays:
[1] = test system: spontaneously hypertensive rats (SHR); assay: depression of tail arterial blood pressure in spontaneously hypertensive rats (SHR); type: in vivo, rat; conditions: for Depression of blood pressure, SHR: injected, Means±S.D., N=11; for depress the blood pressure of hypertensive rats (conventional antihypertensive drugs): 1 mg/kg injection, N=8
Description: (§1) The effect on the blood pressure of spontaneously hypertensive rats (SHR) and normal rats (WKY)
(§2) The tannins obtained in the example 1 were injected into various rats respectively at different concentrations.
(§3) The data (Means±S.D.) in table 1 represents the value of the depression range of blood pressure (N=11). In comparison to conventional antihypertensive drugs, guanethidine can depress the blood pressure of hypertensive rats in a range of 28.8±7.95 mmHg (N=8) with a injection concentration of 1 mg/kg, prazosin in a range of 31.4±7.17 mmHg (N=8) and nifedipine in a range of 10.8±2.78 mmHg (N=8) at the same concentration.

norepinephrine = assay: concentration of norepinephrine in blood (plasma NE); type: in vivo, rat; conditions: injected to the veins, after ten minutes, Means ± S.D, N=6, Control 3.55 ± 0.31
Description: The effect on the concentration of norepinephrine in blood Four tannins were injected to the veins of various rats respectively at different concentrations. After ten minutes, the blood of the rats were sampled to determine the concentration of norepinephrine in their blood. Obviously, these compounds can reduce the concentration of norepinephrine,i.e., they can inhibit the secretion of norepinephrine and relax the adrenergic tension, and therefore the blood pressure can be reduced.

[2] = test system: contraction of rat blood vessel (norepinephrine); assay: inhibition of norepinephrine-induced contraction of rat blood vessel; type: in vivo; conditions: norepinephrine 10^-6 g/kg; dose 1 mg/kg i.v.; anesthetized normal rats; Means ± S.D.; n=8
Description: (§4) The effect on the contraction of rat blood vessel Norepinephrine and octopamine were injected into various anesthetized normal rats respectively, so that a contraction of rat blood vessels was induced and the blood pressure increased. […] Therefore, the tannins are potent in inhibiting the contraction of blood vessels and the effect of the tannins on the wall of blood vessel is also significant.

[3] = lethal dosage (LD50) in rats; type: in vivo; conditions: rat, in vivo
Description: (§5) Furthermore, the lethal dosages (LD50) for the rats were determined. The LD50 of corilagin and geraniin were greater than 100 mg/kg, and the LD50 of 6-O-galloyl-D-glucose and 1,2,3,4,6-penta-O-galloyl-D-glucose were greater than 50 mg/kg. Therefore, these four tannins can be used as a safe and effective […] drugs.

normal rats (WKY) = assay: depression of tail arterial blood pressure in normal rats (WKY); type: in vivo, rat; conditions: injected, Means±S.D., N=11
Description: as §1, §2, §3

[4] = test system: contraction of rat blood vessel (octopamine); assay: inhibition of octopamine-induced contraction of rat blood vessel; type: in vivo; conditions: octopamine 8 × 10^-4 g/kg; dose 1 mg/kg i.v.; anesthetized normal rats; Means ± S.D.; n=8
Description: as §4

rats = assay: lethal dosage (LD50) in rats; type: in vivo
Description: as §5

SMILES	Depression of blood pressure, SHR ([1]; 1 mg/kg) [mmHg]	Depression of blood pressure, SHR ([1]; 5 mg/kg) [mmHg]	Plasma NE (norepinephrine; 1 mg/kg) [pmol/mL]	Plasma NE (norepinephrine; 5 mg/kg) [pmol/mL]	Inhibition (%), Norepinephrine [2] [%]	LD50 [3] [mg/kg]	Depression of blood pressure, WKY (normal rats (WKY); 1 mg/kg) [mmHg]	Depression of blood pressure, WKY (normal rats (WKY); 5 mg/kg) [mmHg]	Inhibition (%), Octopamine [4] [%]	Plasma NE (norepinephrine; 0.5 mg/kg) [pmol/mL]	LD50 (rats)	depress the blood pressure of hypertensive rats (conventional antihypertensive drugs) [1] [mmHg]
O=C(OC[C@H]1O[C@@H](OC(=O)c2cc(O)c(O)c(O)c2)[C@H](OC(=O)c2cc(O)c(O)c(O)c2)[C@@H](OC(=O)c2cc(O)c(O)c(O)c2)[C@@H]1OC(=O)c1cc(O)c(O)c(O)c1)c1cc(O)c(O)c(O)c1 [1,2,3,4,6-penta-O-galloyl-D-glucose, 1,2,3,4,6-penta-O-galloyl-β-D-glucose]	13.28 ± 6.22	29.57 ± 13.38	1.94 ± 0.19	1.23 ± 0.21	70.6 ± 10.7	> 50	2.62 ± 2.33	5.74 ± 2.41	72.1 ± 14.8			
O=C(OC[C@H]1OC(O)[C@H](O)[C@@H](O)[C@@H]1O)c1cc(O)c(O)c(O)c1 (stereo partly drawn) [6-O-galloyl-D-glucose]	17.28 ± 7.08	24.12 ± 9.93	2.14 ± 0.09	1.76 ± 0.22	64.1 ± 15.1	> 50	5.81 ± 5.07	5.21 ± 3.48	65.3 ± 11.3			
O=C(O[C@@H]1O[C@@H]2COC(=O)c3cc(O)c(O)c(O)c3-c3c(cc(O)c(O)c3O)C(=O)O[C@H]([C@H]1O)[C@@H]2O)c1cc(O)c(O)c(O)c1 [Corilagin, corilagin]	17.85 ± 3.38	26.57 ± 7.92	1.55 ± 0.19		83.4 ± 7.3	> 100	3.85 ± 2.64	10.85 ± 4.89	65.5 ± 27.5	2.19 ± 0.22		
O=C1O[C@H]2[C@@H]3OC(=O)c4cc(O)c(O)c(O)c4-c4c(cc(O)c(O)c4O)C(=O)OC[C@H]2O[C@@H](OC(=O)c2cc(O)c(O)c(O)c2)[C@@H]3OC(=O)c2cc(O)c(O)c3c2[C@@H]2C1=CC(=O)[C@](O)(O3)C2(O)O [Geraniin, geraniin]	19.28 ± 5.49	25.85 ± 4.18	2.17 ± 0.09		87.1 ± 6.5		3.57 ± 4.72	13.28 ± 6.67	74.8 ± 13.5	2.66 ± 0.19	greater than 100 mg/kg	
N=C(N)NCCN1CCCCCCC1 [guanethidine, reference compound]												28.8±7.95
COC(=O)C1=C(C)NC(C)=C(C(=O)OC)C1c1ccccc1[N+](=O)[O-] [nifedipine, reference compound]												10.8±2.78
COc1cc2nc(N3CCN(C(=O)c4ccco4)CC3)nc(N)c2cc1OC [prazosin, reference compound]												31.4±7.17
